Where two headings read alike, the source gives them in different places.
Legend:
in vivo = conditions: both, BALB/C, mouse, ip
Protocol: (§1) The in vivo determination of acute toxicity of drugs was performed in mice according to “OECD Guidelines for Testing of Chemicals” (Guideline No 401). The study was performed in BALB/C mice and the test substance was administrated intraperitoneally in dose of 1; 5 and 10 mg/kg b.w. Ten males and 10 females were used for each dose. A control group receiving only solvent was run concurrently.

HCV subgenomic replicon = test: Anti-HCV activity in HCV subgenomic replicon system (Huh7 cells, firefly luciferase); conditions: for Therapeutic Index in HCV replicon system CC50/IC50: Huh7 HCV replicon system
Protocol: The antiviral (anti-HCV) activity of epirubicin and its derivatives was tested in vitro in cell culture model using the HCV subgenomic replicon stably transfected into Huh7 cells line (clone BM4.5) (Gao et al., J. Virol. 2001) and/or in Huh7 cells replicating selectable subgenomic HCV replicon carrying firefly luciferase gene (Vrolijk et al. J. Virol. Method. 2003).
The BM4.5 Huh7 cells were grown in cell culture medium in presence of varying concentrations of epirubicin hydrochloride (BNE00) or epirubicin derivatives. The media and drug were changed everyday for 5 days. After 5 days of treatment cells were lysed and total RNA extracted as described (Gao et al., J. Virol. 2001). The isolated RNA was then assayed for presence of HCV replication by Northern Blot analysis, using a HCV probe targeting the NS5B region of HCV. […] The cell lines were treated everyday with different epirubicin hydrochloride (BNE00) or epirubicin derivatives concentrations for 5 days and at the end of treatment, the RNA from the treated cells were isolated. The total RNA was then probed with a HCV specific probe using Northern blot analysis to detect the HCV RNA. The resulting blot was then exposed to phosphorimager densitometry and the viral replication quantified.
For Huh7 cells replicating selectable subgenomic HCV replicon carrying firefly luciferase gene cells were treated with epirubicin hydrochloride (BNE00) or epirubicin derivatives as described above for BM4,5 cells. Following the treatment, cells were lysed and firefly luciferase activity was measured using Luminoskan device (Thermolabsystem) as described (Vrolijk et al. J. Virol. Methods. 2003).

HCV = test: Inhibition of HCV replication in chronically HCV-infected human PBMC (RT-PCR); conditions: for IC50: read-out: Anti-HCV activity in PBMC IC50; for IC90: read-out: Anti-HCV activity in PBMC IC90
Protocol: In addition, the inhibition of HCV replication by epirubicin hydrochloride (BNE00), N3′-acetylepirubicin (BNE01), and N3′,O4′,O14-triacetylepirubicin (BNE02) were analyzed in chronically HCV-infected human peripheral blood monocyte cells (PBMC) cultures which was performed as follows. PBMC were isolated from HCV-infected patients blood by Ficoll Pague centrifugation placed on Petri dishes and cultured in 10% FCS, RPMI medium containing PHA (3 μg/ml) according to Laskus et al. (J Infect Dis. 2000) and enriched with known concentrations of BNE00, BNE01, BNE02 in standard conditions (37° C., 5% CO2). On day 5 and 14 of the culture the cells were collected and after extraction, HCV RNA was […] estimated by real-time Reverse Transcriptase Polymerase Chain Reaction using SYBR Green system (FIG. 3). Semiquantitative estimation of HCV RNA was also performed by Reverse Transcriptase Polymerase Chain Reaction, and visualized after electrophoresis through a 1% agarose gel, using ethidium bromide staining (FIG. 4).

in vitro = conditions: human
[1] = Cytotoxic activity in Huh7 cells replicating the HCV replicon; conditions: human
BALB/C mice = test: In vivo acute toxicity in mice (OECD Guideline No 401)
Protocol: as §1

Huh7 cells = test: Cytotoxic activity in Huh7 cells replicating the HCV replicon; conditions: read-out: Cytotoxic activity in Huh7 Cells, CC50; Huh7 cells replicating subgenomic HCV replicon carrying firefly luciferase gene
[2] = Hepatitis C virus, PBMC, in Homo sapiens
[3] = chronically HCV-infected human PBMC
[4] = read-out: Anti-HCV activity in HCV replicon system IC50, Huh7 cells, subgenomic HCV replicon carrying firefly luciferase gene

| Compound | LD50 (in vivo) | IC50 (HCV subgenomic replicon; Hepatitis C virus, Huh-7, read-out: Anti-HCV activity in HCV replicon system IC50) | IC50 (HCV subgenomic replicon; Hepatitis C virus, Huh-7, read-out: anti-HCV IC50) | Therapeutic Index in HCV replicon system CC50/IC50 (HCV subgenomic replicon) | IC50 (HCV; [2]) | IC90 (HCV; [2]) | Therapeutic Index in PBMC TI50 CC50/IC50 (HCV; [3]) | CC50 (in vitro) | CC90 (in vitro) | CC50 [1] | CC50 (PBMC) | CC90 (PBMC) | IC50 (HCV; [3]) | IC90 (HCV; [3]) | IC50 (HCV subgenomic replicon; [4]) | LD50 (in vivo acute toxicity) (BALB/C mice; BALB/C mice, intraperitoneal) | fold lower acute toxicity compared with epirubicin hydrochloride (BNE00) (BALB/C mice; LD50 ratio, mice) | CC50 (Huh7 cells) |
| --- | --- | --- | --- | --- | --- | --- | --- | --- | --- | --- | --- | --- | --- | --- | --- | --- | --- | --- |
| COc1cccc2c1C(=O)c1c(O)c3c(c(O)c1C2=O)C[C@@](O)(C(=O)CO)C[C@@H]3O[C@H]1C[C@H](N)[C@@H](O)[C@H](C)O1 [BNE00, 7-O-(3′-amino-2′,3′,6′-trideoxy-α,β-L-arabinohexopyranosyl)-adriamycinone, reference compound] | 26.2 mg/kg | 2 nM | 2 to 4 nM | 1.5 | 320 nM | 460 nM | 5.62 | 1800 nM | 2400 nM | 3 nM | – | – | – | – | – | – | – | – |
| COc1cccc2c1C(=O)c1c(O)c3c(c(O)c1C2=O)C[C@@](O)(C(=O)CO)C[C@@H]3O[C@H]1C[C@@H](NC(C)=O)[C@H](O)[C@H](C)O1 [BNE01, N3′-acetyl-4′-epidoxorubicin] | – | – | – | – | – | – | 91.7 | – | – | – | 33000 nM | 91000 nM | 360 nM | 470 nM | – | – | – | – |
| COc1cccc2c1C(=O)c1c(O)c3c(c(O)c1C2=O)CC(O)(C(=O)COC(C)=O)CC3OC1CC(NC(C)=O)C(OC(C)=O)C(C)O1 (stereo not shown) [BNE02, N3′, O4′, O14-triacetyl-4′-epidoxorubicin] | – | – | – | 10 | – | – | >490.0 | – | – | – | 49000 nM | 120000 nM | < 100 nM | 500 nM | 500 nM | 1355.08 mg/kg b.w. | 52 fold | 5000 nM |
| COc1cccc2c1C(=O)c1c(O)c3c(c(O)c1C2=O)CC(O)(C(=O)CO)CC3OC1CC(N(C)C)C(O)C(C)O1 (stereo not shown) [BNE06, 3′-N,N-Dimethyl-4′-epidoxorubicin] | – | – | – | 3.0 | – | – | – | – | – | – | – | – | – | – | 18 nM | – | – | 60 nM |

Source: patent publication US8173610B2 (priority 2005, dated 2012)
